Source: US20120129834A1, “SEROTONIN RECEPTOR ANTAGONISTS FOR USE IN THE TREATMENT OF HUNTINGTON'S DISEASE” (BUCK INSTITUTE FOR RESEARCH ON AGING, priority 2010, published 2012)
“Also recorded” adds a separate entry of the source.

Experiments:
STHdh111Q/111Q cells = experiment: viability (ATP) assay of cell death in serum deprived STHdh111Q/111Q cells (Prestwick library screen and dose/response); assay type: cell-based; conditions: for loss of viability (ATP levels): dose/response, STHdh111Q/111Q serum deprivation model, FIG. 17 upper panel, n=3/dose; for huntingtin-mediated cell death: screen of the Prestwick Chemical library, cell-based assay of mutant huntingtin-mediated cell death
Method: Viability as measured by ATP levels (normalized to cell number) in cells after 24 h of serum deprivation. Data are show as percent DMSO control (100%). […]
(§1) This library is composed of 1,200 marketed drugs with favorable safety, bioavailability and efficacy properties.

R6/2 mouse model of HD [1] = experiment: open field behavior analysis in R6/2 mice; assay type: in vivo; conditions: treated vs control
From the text: as §1

R6/2 mouse model of HD [2] = experiment: lifespan of R6/2 mice; assay type: in vivo; conditions: 10 mg/kg IP daily, treatment groups compared
From the text: This may reflect a specific mechanism of action for pizotifen.

DARPP-32 = DARPP-32 expression as measure of disease progression; assay type: in vivo; conditions: mouse model of HD, FIG. 24 panels A-C
[3] = weight loss in the mouse model; assay type: in vivo; conditions: 7.5 mg/kg, FIG. 21
ERK pathway = experiment: activation of the ERK pathway in vivo (striatum, cortex); design: species or system mouse; conditions: FIG. 23
R6/2 mouse model of HD [4] = experiment: rotarod performance of R6/2 HD mice; assay type: in vivo; conditions: for rotarod performance / rotarod deficit: at 9 weeks of age, 10 mg/kg
caspase-3/7 = experiment: caspase activation assay, STHdh111Q/111Q serum deprivation model; assay type: cell-based; conditions: dose/response, FIG. 17 lower panel, n=3/dose

With CN1CCC(=C2c3ccccc3C=Cc3ccccc32)CC1.Cl [Cyproheptadine, 4-(5H-dibenzo[a,d]cyclohepten-5-ylidene)-1-methylpiperidine hydrochloride] the “loss of viability (ATP levels)” value (STHdh111Q/111Q cells) was “rescue loss of viability” and the huntingtin-mediated cell death (STHdh111Q/111Q cells) was “reproducibly suppress huntingtin-mediated cell death in a dose-dependent manner”.
With CN1CCC(=C2c3ccccc3CCc3sccc32)CC1 [Pizotifen, 4-(1-methyl-4-piperidylidine)-9,10-dihydro-4H-benzo-[4,5]cyclohepta[1,2]-thiophene] the “open field, general activity level” value (R6/2 mouse model of HD [1]) was “general activity level of treated animals was normal”, the “open field, general activity level” value (R6/2 mouse model of HD [1]; listed as pizotifen) was “no statistical differences” and the lifespan (R6/2 mouse model of HD [2]) was “no statistical differences”. For the same compound, the “DARPP-32 decrease (measure of disease progression)” value (DARPP-32) was “rescued”, the weight loss [3] was “doesn't improve or worsen weight loss” and the “activation of the ERK pathway in cortex” value (ERK pathway; cortex) was “not observed; also recorded: not cortex activation”. For the same compound, the “activation of the ERK pathway in striatum” value (ERK pathway; striatum) was “activation of the ERK pathway in vivo; also recorded: striatal, but not cortex activation”, the “dose dependence of correction of rotarod” value (R6/2 mouse model of HD [4]; FIG. 20) was “dose-dependent effect; also recorded: dose dependent response” and the rotarod performance (R6/2 mouse model of HD [4]; R6/2 mice, 10 mg/kg IP daily from 5 weeks of age, after one week of treatment) was “improved”. The “rotarod performance / rotarod deficit” value (R6/2 mouse model of HD [4]; R6/2 mice, 10 mg/kg IP daily from 5 weeks of age) was “significant beneficial effects”, the “rotarod performance / rotarod deficit” value (R6/2 mouse model of HD [4]; R6/2 mice, 10 mg/kg IP daily from 5 weeks of age, listed as pizotifin) was “corrects the rotarod deficit to near wild-type levels” and the rotarod performance (R6/2 mouse model of HD [4]; R6/2 mice, 10 mg/kg IP daily, 6-week old group, after three days of treatment) was “significant improvement”. The “motor deficits (Rotarod performance)” value (R6/2 mouse model of HD [4]; R6/2 mice, two independent studies) was “robustly correct motor deficits (i.e. Rotarod performance) in R6/2 to near wild-type levels”, the “loss of viability (ATP levels)” value (STHdh111Q/111Q cells) was “rescue loss of viability” and the huntingtin-mediated cell death (STHdh111Q/111Q cells) was “reproducibly suppress huntingtin-mediated cell death in a dose-dependent manner”.
With CN1CCN(C2=Nc3ccccc3Oc3ccc(Cl)cc32)CC1 [Loxapine, 2-Chloro-11-(4-methylpiperazin-1-yl)dibenzo[b,f][1,4]oxazepine] the caspase-3/7 activation (caspase-3/7) was “rescue”, the “loss of viability (ATP levels)” value (STHdh111Q/111Q cells) was “rescue loss of viability” and the huntingtin-mediated cell death (STHdh111Q/111Q cells) was “reproducibly suppress huntingtin-mediated cell death in a dose-dependent manner”.
